Measured values taken from ChEMBL document CHEMBL1132667, “P2-achiral, P'-extended alpha-ketoamide inhibitors of calpain I” (Bioorg Med Chem Lett, 1999).

These molecules were tested against T1, Calpain-1 catalytic subunit (Homo sapiens, UniProt P07384) (assay: Inhibitory activity against recombinant human Calpain 1).
T1 sequence (P07384 whole entry): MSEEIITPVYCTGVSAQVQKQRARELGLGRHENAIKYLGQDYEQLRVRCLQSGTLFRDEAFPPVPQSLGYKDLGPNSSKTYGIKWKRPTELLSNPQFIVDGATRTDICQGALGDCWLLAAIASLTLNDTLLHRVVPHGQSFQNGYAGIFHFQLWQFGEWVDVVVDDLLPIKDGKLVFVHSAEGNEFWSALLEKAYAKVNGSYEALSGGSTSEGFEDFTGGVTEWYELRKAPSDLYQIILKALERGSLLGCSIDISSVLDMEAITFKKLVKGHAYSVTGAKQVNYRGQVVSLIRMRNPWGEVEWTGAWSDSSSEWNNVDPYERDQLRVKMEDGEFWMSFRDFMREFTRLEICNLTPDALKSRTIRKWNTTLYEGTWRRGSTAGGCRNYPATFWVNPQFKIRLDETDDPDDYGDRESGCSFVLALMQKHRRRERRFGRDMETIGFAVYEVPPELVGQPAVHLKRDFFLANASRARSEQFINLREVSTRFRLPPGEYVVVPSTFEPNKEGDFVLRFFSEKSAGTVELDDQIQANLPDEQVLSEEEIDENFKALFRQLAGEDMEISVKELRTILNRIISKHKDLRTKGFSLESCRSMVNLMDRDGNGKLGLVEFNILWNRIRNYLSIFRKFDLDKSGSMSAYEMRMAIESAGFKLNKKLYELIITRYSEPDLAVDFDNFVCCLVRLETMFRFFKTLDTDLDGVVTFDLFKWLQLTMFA

Structure (SMILES)	Ki
O=C(CCCc1ccccc1)N[C@@H](Cc1ccccc1)C(=O)C(=O)NCCNS(=O)(=O)c1ccc(-c2ccccn2)s1	1100 nM
CC(C)CC(=O)N[C@@H](Cc1ccccc1)C(=O)C(=O)NCCNS(=O)(=O)c1ccc(-c2ccccn2)s1	420 nM
CC(C)CCC(=O)N[C@@H](Cc1ccccc1)C(=O)C(=O)NCCNS(=O)(=O)c1ccc(-c2ccccn2)s1	21 nM
CC(C)C(=O)N[C@@H](Cc1ccccc1)C(=O)C(=O)NCCNS(=O)(=O)c1ccc(-c2ccccn2)s1	1100 nM

The next lines start with the values.

Ki	Structure (SMILES)
21 nM	O=C(NCCNS(=O)(=O)c1ccc(-c2cccc(CN3CCOCC3)c2)s1)C(=O)[C@H](Cc1ccccc1)NC(=O)c1c(Cl)cccc1Cl
57 nM	O=C(Cc1ccc(Cl)nc1Cl)N[C@@H](Cc1ccccc1)C(=O)C(=O)NCCNS(=O)(=O)c1ccc(-c2ccccn2)s1

These molecules were tested against T1, Calpain-1 catalytic subunit (assay: Inhibitory activity against recombinant human calpain I).

Structure (SMILES)	Ki
O=C(NCCNS(=O)(=O)c1ccc(CN2CCN(c3ccccn3)CC2)cc1)C(=O)[C@H](Cc1ccccc1)NC(=O)c1c(Cl)cccc1Cl	59 nM
O=C(N[C@@H](Cc1ccccc1)C(=O)O)c1c(Cl)cccc1Cl	~360 nM
O=C(NCCNS(=O)(=O)c1ccc(-c2ccccn2)s1)C(=O)[C@H](Cc1ccccc1)NC(=O)c1cc(C(F)(F)F)cc(C(F)(F)F)c1	430 nM
O=C(NCCNS(=O)(=O)c1ccc(-c2ccccn2)s1)C(=O)[C@H](Cc1ccccc1)NC(=O)c1ccccc1	570 nM
CC(CCC(=O)N[C@@H](Cc1ccccc1)C(=O)C(=O)NCCNS(=O)(=O)c1ccc(-c2ccccn2)s1)c1ccccc1 (some centres not stated)	62 nM
CS(=O)(=O)N[C@H](COCc1ccccc1)C(=O)N[C@@H](Cc1ccccc1)C(=O)C(=O)NCCNS(=O)(=O)c1ccc(-c2ccccn2)s1	10 nM
O=C(NCCNS(=O)(=O)c1ccc(-c2ccccn2)s1)C(=O)[C@H](Cc1ccccc1)NC(=O)c1ccc2c(c1)OCO2	> 1000 nM

Continued, values first:

Ki	Structure (SMILES)
8 nM	N#Cc1cccc(-c2ccc(S(=O)(=O)NCCNC(=O)C(=O)[C@H](Cc3ccccc3)NC(=O)c3c(Cl)cccc3Cl)s2)c1
49 nM	O=C(NCCNS(=O)(=O)c1ccc(-c2ccccn2)s1)C(=O)[C@H](Cc1ccccc1)NC(=O)c1cc(Cl)ccc1Cl
71 nM	CC(=O)N1CCN(Cc2ccc(S(=O)(=O)NCCNC(=O)C(=O)[C@H](Cc3ccccc3)NC(=O)c3c(Cl)cccc3Cl)cc2)CC1
26 nM	O=C(NCCNS(=O)(=O)c1ccc(-c2ccccn2)s1)C(=O)[C@H](Cc1ccccc1)NC(=O)c1c(Cl)cccc1Cl
14 nM	CC(=O)NCc1cccc(-c2ccc(S(=O)(=O)NCCNC(=O)C(=O)[C@H](Cc3ccccc3)NC(=O)c3c(Cl)cccc3Cl)s2)c1
15 nM	O=Cc1cccc(-c2ccc(S(=O)(=O)NCCNC(=O)C(=O)[C@H](Cc3ccccc3)NC(=O)c3c(Cl)cccc3Cl)s2)c1
46 nM	COc1ccc(Cl)c(C(=O)N[C@@H](Cc2ccccc2)C(=O)C(=O)NCCNS(=O)(=O)c2ccc(-c3ccccn3)s2)c1
130 nM	Cc1cccc(C)c1C(=O)N[C@@H](Cc1ccccc1)C(=O)C(=O)NCCNS(=O)(=O)c1ccc(-c2ccccn2)s1
14 nM	O=C(NCCNS(=O)(=O)c1ccc(-c2ccccn2)s1)C(=O)[C@H](Cc1ccccc1)NC(=O)c1c(F)cccc1F
